Reference: patent publication US10590140B2, “Tetrahydropyrimidodiazepine and dihydropyridodiazepine compounds for treating pain and pain related conditions” (ESTEVE PHARMACEUTICALS, S.A., priority 2016, dated 2020)
Read-outs that look alike come from different tables or passages of the source.

Target: human α2δ-1 subunit of Cav2.2 calcium channel (Homo sapiens (Human), UniProt P54289)
Assay: Binding assay to human α2δ-1 subunit of Cav2.2 calcium channel ([3H]-Gabapentin)
Protocol: Binding Assay to Human α2δ-1 Subunit of Cav2.2 Calcium Channel.
NSB (non specific binding) was measured by adding 10 μM pregabalin. After 60 min incubation at 27° C., binding reaction was terminated by filtering through Multiscreen GF/C (Millipore) presoaked in 0.5% polyethyleneimine in Vacuum Manifold Station, followed by 3 washes with ice-cold filtration buffer containing 50 mM Tris-HCl, pH 7.4.
Filter plates were dried at 60° C. for 1 hour and 30 μl of scintillation cocktail were added to each well before radioactivity reading.

[1] = binding to α2δ-1, [3H]-Gabapentin, read-out: Ki (nM) α2δ-1
[2] = Table 2, dual compounds, [3H]-Gabapentin binding, read-out: Ki (nM) α2δ-1

Chain of human α2δ-1 subunit of Cav2.2 calcium channel (P54289 25-1103): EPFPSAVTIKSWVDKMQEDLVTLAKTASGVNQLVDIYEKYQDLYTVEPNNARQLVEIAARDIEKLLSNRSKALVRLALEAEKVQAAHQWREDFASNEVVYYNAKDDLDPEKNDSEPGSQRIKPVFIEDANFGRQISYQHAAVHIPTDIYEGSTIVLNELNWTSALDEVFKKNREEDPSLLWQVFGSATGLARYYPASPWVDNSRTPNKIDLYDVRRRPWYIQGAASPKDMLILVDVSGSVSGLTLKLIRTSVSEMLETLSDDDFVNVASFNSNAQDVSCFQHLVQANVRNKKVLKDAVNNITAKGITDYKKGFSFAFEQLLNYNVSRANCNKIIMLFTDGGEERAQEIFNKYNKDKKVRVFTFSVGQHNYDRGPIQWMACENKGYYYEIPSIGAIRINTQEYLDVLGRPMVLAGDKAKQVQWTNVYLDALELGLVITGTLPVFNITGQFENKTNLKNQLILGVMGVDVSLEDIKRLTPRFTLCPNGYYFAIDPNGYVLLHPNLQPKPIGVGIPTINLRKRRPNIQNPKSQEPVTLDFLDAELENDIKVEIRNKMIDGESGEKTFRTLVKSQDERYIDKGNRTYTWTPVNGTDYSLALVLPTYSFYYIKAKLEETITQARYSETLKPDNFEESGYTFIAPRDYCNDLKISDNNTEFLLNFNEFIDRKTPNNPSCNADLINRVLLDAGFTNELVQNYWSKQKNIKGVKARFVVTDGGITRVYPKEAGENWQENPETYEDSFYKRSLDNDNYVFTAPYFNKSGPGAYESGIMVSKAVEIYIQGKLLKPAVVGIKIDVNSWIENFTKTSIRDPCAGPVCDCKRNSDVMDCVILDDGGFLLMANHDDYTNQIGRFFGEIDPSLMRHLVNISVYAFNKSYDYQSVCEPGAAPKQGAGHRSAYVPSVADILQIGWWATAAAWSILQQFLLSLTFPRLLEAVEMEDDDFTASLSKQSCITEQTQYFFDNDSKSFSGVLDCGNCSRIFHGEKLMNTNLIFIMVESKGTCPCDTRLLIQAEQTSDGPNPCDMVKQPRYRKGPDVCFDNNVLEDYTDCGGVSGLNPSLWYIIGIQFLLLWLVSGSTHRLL

| Ki [1] | Structure (SMILES) | Ki [2] | Ki |
| --- | --- | --- | --- |
| 100 to 500 nM | CCNc1ncc2c(n1)N(C)CCN(c1cccc(OC3CCN(Cc4ccccc4)C3)c1)C2=O (stereo not drawn) [Example 266, 6-(3-((1-benzylpyrrolidin-3-yl)oxy)phenyl)-2-(ethylamino)-9-methyl-6,7,8,9-tetrahydro-5H-pyrimido[4,5-e][1,4]diazepin-5-one] | – | – |
| 100 to 500 nM | CCNc1ncc2c(n1)N(C)CCN(c1cccc(C3CCNCC3)c1)C2=O [Example 235, 2-(Ethylamino)-9-methyl-6-(3-(piperidin-4-yl)phenyl)-6,7,8,9-tetrahydro-5H-pyrimido[4,5-e][1,4]diazepin-5-one] | – | – |
| 500 to 3000 nM | CNCCC(OCc1cccc(N2CCN(C)c3nc(OC)ncc3C2=O)c1)c1cccs1 (stereo not drawn) [Example 221, 2-methoxy-9-methyl-6-(3-((3-(methylamino)-1-(thiophen-2-yl)propoxy)methyl)phenyl)-6,7,8,9-tetrahydro-5H-pyrimido[4,5-e][1,4]diazepin-5-one] | 100 to 500 nM | – |
| 500 to 3000 nM | CCNc1ncc2c(n1)N(C)CCN(c1cccc(OCCN3CCCCC3)c1)C2=O [Example 439, 2-(ethylamino)-9-methyl-6-(3-(2-(piperidin-1-yl)ethoxy)phenyl)-6,7,8,9-tetrahydro-5H-pyrimido[4,5-e][1,4]diazepin-5-one] | – | – |
| > 3000 nM | CCNc1ncc2c(n1)N(C)CCN(c1cccc(C(=O)O)c1)C2=O [Example 313, 3-(2-(ethylamino)-9-methyl-5-oxo-5,7,8,9-tetrahydro-6H-pyrimido[4,5-e][1,4]diazepin-6-yl)benzoic acid] | – | – |
| 100 to 500 nM | CCNc1ncc2c(n1)N(C)CCN(c1cccc(OCCNC)c1)C2=O [Example 170, 2-(ethylamino)-9-methyl-6-(3-(2-(methylamino)ethoxy)phenyl)-6,7,8,9-tetrahydro-5H-pyrimido[4,5-e][1,4]diazepin-5-one] | – | – |
| 500 to 3000 nM | CNCC[C@H](Oc1ccc(CN2CCN(C)c3c(Cl)cncc3C2=O)cc1)c1cccs1 [Example 400, (S)-9-chloro-1-methyl-4-(4-(3-(methylamino)-1-(thiophen-2-yl)propoxy)benzyl)-1,2,3,4-tetrahydro-5H-pyrido[4,3-e][1,4]diazepin-5-one] | – | – |
| > 3000 nM | CCNc1ncc2c(n1)N(C)CCN(c1cccc(OC(CCN(CCF)C(=O)OC(C)(C)C)c3cccs3)c1)C2=O (stereo not drawn) [Example 134, tert-butyl (3-(3-(2-(ethylamino)-9-methyl-5-oxo-5,7,8,9-tetrahydro-6H-pyrimido[4,5-e][1,4]diazepin-6-yl)phenoxy)-3-(thiophen-2-yl)propyl)(2-fluoroethyl)carbamate] | – | – |
| 500 to 3000 nM | CCNc1ncc2c(n1)N(C)CCN(c1cccc(N3CCC(c4ccccc4)(N(C)C)CC3)c1)C2=O [Example 312, 6-(3-(4-(dimethylamino)-4-phenylpiperidin-1-yl)phenyl)-2-(ethylamino)-9-methyl-6,7,8,9-tetrahydro-5H-pyrimido[4,5-e][1,4]diazepin-5-one] | – | – |
| 500 to 3000 nM | CCNc1ncc2c(n1)N(C)CCN(c1cccc(-n3cc(CN4CCC(c5ccccc5)(N(C)C)CC4)cn3)c1)C2=O [Example 294, 6-(3-(4-((4-(dimethylamino)-4-phenylpiperidin-1-yl)methyl)-1H-pyrazol-1-yl)phenyl)-2-(ethylamino)-9-methyl-6,7,8,9-tetrahydro-5H-pyrimido[4,5-e] [1,4]diazepin-5-one] | – | – |
| 100 to 500 nM | CCNc1ncc2c(n1)N(C)CCN(c1cccc(CCN3CCC4(CC3)CN(C(C)C)C(=O)[C@@H](C)O4)c1)C2=O [Example 276, (R)-9-(3-(2-(ethylamino)-9-methyl-5-oxo-5,7,8,9-tetrahydro-6H-pyrimido[4,5-e][1,4]diazepin-6-yl)phenethyl)-4-isopropyl-2-methyl-1-oxa-4,9-diazaspiro[5.5]undecan-3-one] | – | – |

Continued, compound first:

| Structure (SMILES) | Ki [1] | Ki [2] | Ki |
| --- | --- | --- | --- |
| CCNc1ncc2c(n1)N(C)CCN(c1cccc(O[C@@H](CCN(C)C(=O)OC(C)(C)C)c3ccccc3)c1)C2=O [Example 71, tert-butyl (S)-(3-(3-(2-(ethylamino)-9-methyl-5-oxo-5,7,8,9-tetrahydro-6H-pyrimido[4,5-e][1,4]diazepin-6-yl)phenoxy)-3-phenylpropyl)(methyl) carbamate] | > 3000 nM | – | – |
| CCNc1ncc2c(n1)N(C)CCN(c1cccc(-n3cc(CN(C)C(=O)OC(C)(C)C)nn3)c1)C2=O [Example 116, tert-butyl ((1-(3-(2-(ethylamino)-9-methyl-5-oxo-5,7,8,9-tetrahydro-6H-pyrimido[4,5-e][1,4]diazepin-6-yl)phenyl)-1H-1,2,3-triazol-4-yl)methyl)(methyl) carbamate] | > 3000 nM | – | – |
| CSc1ncc2c(n1)N(C)CCN(c1cccc(OCCCN(Cc3ccccc3)C(=O)OC(C)(C)C)c1)C2=O [Example 21, tert-butyl benzyl(3-(3-(9-methyl-2-(methylthio)-5-oxo-5,7,8,9-tetrahydro-6H-pyrimido[4,5-e][1,4]diazepin-6-yl)phenoxy)propyl) carbamate] | > 3000 nM | – | – |
| CCNc1ncc2c(n1)N(C)CCN(c1cccc(OC(CCN(C)C(=O)OC(C)(C)C)c3ccccn3)c1)C2=O (stereo not drawn) [Example 128, tert-butyl (3-(3-(2-(ethylamino)-9-methyl-5-oxo-5,7,8,9-tetrahydro-6H-pyrimido[4,5-e][1,4]diazepin-6-yl)phenoxy)-3-(pyridin-2-yl)propyl)(methyl) carbamate] | > 3000 nM | – | – |
| CCNc1ncc2c(n1)N(C)CCN(c1cccc(-n3cnc(CN(C)C(=O)OC(C)(C)C)c3)c1)C2=O [Example 123, tert-butyl ((1-(3-(2-(ethylamino)-9-methyl-5-oxo-5,7,8,9-tetrahydro-6H-pyrimido[4,5-e][1,4]diazepin-6-yl)phenyl)-1H-imidazol-4-yl)methyl)(methyl) carbamate] | > 3000 nM | – | – |
| CCNc1ncc2c(n1)N(C)CCN(c1cccc(OCCCN(C)C(=O)OC(C)(C)C)c1)C2=O [Example 88, tert-butyl (3-(3-(2-(ethylamino)-9-methyl-5-oxo-5,7,8,9-tetrahydro-6H-pyrimido[4,5-e][1,4]diazepin-6-yl)phenoxy)propyl) (methyl)carbamate] | > 3000 nM | – | – |
| CCOC(OCC)c1cn(-c2cccc(N3CCN(C)c4nc(SC)ncc4C3=O)c2)nn1 [Example 42, 6-(3-(4-(diethoxymethyl)-1H-1,2,3-triazol-1-yl)phenyl)-9-methyl-2-(methylthio)-6,7,8,9-tetrahydro-5H-pyrimido[4,5-e][1,4]diazepin-5-one] | > 3000 nM | – | – |
| CCNc1ncc2c(n1)N(C)CCN(c1cccc(-n3cc(CCN(C)C(=O)OC(C)(C)C)nn3)c1)C2=O [Example 120, tert-butyl (2-(1-(3-(2-(ethylamino)-9-methyl-5-oxo-5,7,8,9-tetrahydro-6H-pyrimido[4,5-e][1,4]diazepin-6-yl)phenyl)-1H-1,2,3-triazol-4-yl)ethyl)(methyl) carbamate] | > 3000 nM | – | – |
| CCNc1ncc2c(n1)N(C)CCN(c1cccc(OC(CCN(C)C(=O)OC(C)(C)C)c3cccs3)c1)C2=O (stereo not drawn) [Example 80, tert-butyl (3-(3-(2-(ethylamino)-9-methyl-5-oxo-5,7,8,9-tetrahydro-6H-pyrimido[4,5-e][1,4]diazepin-6-yl)phenoxy)-3-(thiophen-2-yl)propyl)(methyl) carbamate] | > 3000 nM | – | – |
| CCNc1ncc2c(n1)N(C)CCN(c1ccc(O[Si](C)(C)C(C)(C)C)cc1)C2=O [Example 115] | > 3000 nM | – | – |
| CCN1CCN(c2cccc(-c3nnc(C)o3)c2)C(=O)c2cnc(SC)nc21 [Example 30, 9-ethyl-6-(3-(5-methyl-1,3,4-oxadiazol-2-yl)phenyl)-2-(methylthio)-6,7,8,9-tetrahydro-5H-pyrimido[4,5-e][1,4]diazepin-5-one] | > 3000 nM | – | – |
| Cc1nnc(-c2cccc(N3CCN(C)c4nc(NC5CCCCC5)ncc4C3=O)c2)o1 [Example 103, 2-(cyclohexylamino)-9-methyl-6-(3-(5-methyl-1,3,4-oxadiazol-2-yl)phenyl)-6,7,8,9-tetrahydro-5H-pyrimido[4,5-e][1,4]diazepin-5-one] | > 3000 nM | – | – |
| CCNc1ncc2c(n1)N(C)CCN(c1cccc(COC(CCNC)c3cccs3)c1)C2=O (stereo not drawn) [Example 211, 2-(ethylamino)-9-methyl-6-(3-((3-(methylamino)-1-(thiophen-2-yl)propoxy)methyl)phenyl)-6,7,8,9-tetrahydro-5H-pyrimido[4,5-e][1,4]diazepin-5-one] | 100 to 500 nM | 100 to 500 nM | – |
| CCNc1ncc2c(n1)N(C)CCN(c1cccc(-n3cc(CN4CCC(c5cccc(O)c5)(N(C)C)CC4)nn3)c1)C2=O [Example 293, 6-(3-(4-((4-(dimethylamino)-4-(3-hydroxyphenyl)piperidin-1-yl)methyl)-1H-1,2,3-triazol-1-yl)phenyl)-2-(ethylamino)-9-methyl-6,7,8,9-tetrahydro-5H-pyrimido[4,5-e] [1,4]diazepin-5-one] | – | – | 100 to 500 nM |
| Cc1nnc(-c2cccc(N3CCN(C)c4nc(N(C)Cc5ccccn5)ncc4C3=O)c2)o1 [Example 106, 9-methyl-2-(methyl (pyridin-2-ylmethyl)amino)-6-(3-(5-methyl-1,3,4-oxadiazol-2-yl)phenyl)-6,7,8,9-tetrahydro-5H-pyrimido[4,5-e][1,4]diazepin-5-one] | > 3000 nM | – | – |
| CCNc1ncc2c(n1)N(C)CCN(c1cccc(CO[C@@H](CCN(C)C(=O)OC(C)(C)C)c3cccs3)c1)C2=O [Example 85, tert-butyl (S)-(3-((3-(2-(ethylamino)-9-methyl-5-oxo-5,7,8,9-tetrahydro-6H-pyrimido[4,5-e][1,4]diazepin-6-yl)benzyl)oxy)-3-(thiophen-2-yl)propyl)(methyl) carbamate] | > 3000 nM | – | – |
| CSc1ncc2c(n1)N(C)CCN(c1cccc(CO[C@@H](CCN(C)C(=O)OC(C)(C)C)c3ccccc3)c1)C2=O [Example 11, tert-butyl (S)-methyl(3-((3-(9-methyl-2-(methylthio)-5-oxo-5,7,8,9-tetrahydro-6H-pyrimido[4,5-e][1,4]diazepin-6-yl)benzyl)oxy)-3-phenylpropyl) carbamate] | > 3000 nM | – | – |
